How the values were obtained:
[1] = system: Myeloperoxidase (MPO) activity in colonic tissue; experiment: Myeloperoxidase (MPO) assay in colonic tissue of rats with acetic acid-induced colitis; format: in vivo; details: 650 μmol kg^−1 intracolonically 30 min before 4% acetic acid, mean ± standard deviation
Description: (§1) The ligands were administered to the rats intracolonically as a suspension or solution in distilled water (2 mL) at a dose of 650 μmol kg^−1. The drug solutions were made fresh for each experiment. ROWASA®, the pharmaceutical preparation which contains 5-ASA (2 mL, 66.7 mg mL^−1) was given at a dose of 2318 μmol kg^−1. Control rats received distilled water (2 mL), administered intracolonically.
(§2) Animal care and experimental procedures were approved by the Institutional Animal Care and Use Committee. Colitis was induced by a modification of published methods. Briefly, the rats were anesthetized with sodium pentobarbital, 55 mg kg^−1 intraperitoneally. The abdomen was shaved and prepared for surgery. A midline incision was made, and the cecum and proximal colon were exteriorized. A reversible suture was placed at the junction of the cecum and proximal colon. The colon was rinsed with saline (10 mL), and the fluid and intestinal contents were gently expressed out the rectum. A gum-based rectal plug was inserted. The compound of interest, or distilled water in the control animals (2 mL), was injected intracolonically just distal to the ligature. The cecum and proximal colon were returned to the abdominal cavity; the compound was allowed to remain in the gut for 30 min. Then, the cecum and proximal colon were reexteriorized. The rectal plug was removed, and the drug was gently expressed out of the colon. Acetic acid (4%, 2 mL) was injected into the proximal colon over a 15-20-second time period. The acid was allowed to remain in the gut until one minute had passed (i.e., 40-45 seconds after the end of the acid administration). The no acid control rats received distilled water (2 mL), which was administered in the same manner as was the acetic acid. Air (10 mL) was then injected into the proximal colon to expel the acid or water. The cecal/proximal colon ligature was removed, the gut was returned to the abdominal cavity, and the incisions were closed. The animals were allowed to recover overnight and were sacrificed 24 hr later. The entire length of the colon was removed and assessed for damage both densitometrically and biochemically.
The activity of MPO was measured in colonic tissue by a modification of the method of Krawisz et al. in Gastroenterology 87, 1344-1350 (1984). Each excised colon was homogenized in 9 volumes of homogenization buffer (0.5% hexadecyltrimethylammonium bromide (HDTMA) in 50 mM sodium acetate, pH 6.0); this homogenate was centrifuged at 1200 g for 20 min at 4° C. A sample of the supernatant (1.8 mL) was transferred into a microcentrifuge tube and stored frozen at −20° C. for up to one week. Prior to assay, the thawed aliquot was centrifuged at about 10,000 g for 15 minutes at 4° C. The final supernatant (33 μL) was added to a solution of o-dianisidine HCl (0.17 mg mL^−1 in 50 mM sodium acetate, pH 6.0, made fresh daily and filtered immediately before use) (950 μL), the mixture was vortexed, and the peroxidase reaction was initiated by the addition of H2O2 to 50 mM sodium acetate, pH 6.0, made fresh daily (16.7 μL). The A470 at room temperature (ca. 23° C.) was read at 15-second intervals for 2 min. The rates were assessed graphically and are presented as change in milliabsorbance units (ΔmAU)/min per g tissue. Under these conditions, 0.1 “Unit” of purified human leukocyte myeloperoxidase (Sigma M-6908) produced a ΔA470 of about 400 mAU/min.
The biochemical measurement involves measuring the level of MPO in a sample of homogenate of the whole rat colon. When the colon is damaged by the acetic acid, there is an extravasation of neutrophils. The extent of this infiltration can serve as a quantitative marker for tissue damage. Although other leukocytes, such as eosinophils and monocytes, also contribute to the inflammatory response, their contribution is small; the majority of the cells recruited during the acute inflammatory response are neutrophils. […]

[2] = system: acetic acid-induced colitis; experiment: Acetic acid-induced colitis in rats, densitometric image analysis of colonic damage; format: in vivo; details: for Damage (%): 650 μmol kg^−1 intracolonically 30 min before 4% acetic acid, mean ± standard deviation
Description: as §1, §2
Gross damage was quantitated using Photoshop-based image analysis (version 5.0, Adobe Systems, Mountain View, Calif., USA) on an Apple iMac computer. The Magic Wand tool in the Select menu of Photoshop was used to place the cursor on an area of obvious damage. The tolerance level of the Magic Wand tool was set at 30. The damaged areas were automatically selected by using the Similar command in the Select menu. Then, the Eyedropper tool was used to determine the range of the damage in the highlighted areas. Individual colon images were copied to a blank Photoshop page. The Magic Wand tool, with a tolerance set to 100, was used to select all of the pixels in the colon sample. Then, the Histogram tool, which generates a graph in which each vertical line represents the number of pixels associated with a brightness level, was selected in the Image menu. The Red channel was then selected; the darker (damaged areas) appear on the left side of the histogram and the lighter (normal) areas are on the right side. The cursor was then placed on the histogram, the color range determined in an earlier step was selected, and the number of pixels encompassing that range and the percent damage were quantified automatically.
Two means were employed to assess the damage to the colon in the presence and absence of ligand, computer-based image analysis and colonic MPO measurement. The densitometric method removes much of the subjectivity involved in the simple scoring approaches. A digital image of the prepared colonic tissue is taken, and a clearly damaged segment is highlighted on the screen. Once the computer identifies all other segments of the intestine with the same or greater damage, a pixel number is generated; this number makes it possible to calculate the percentage of damaged intestine.

SMILES | MPO activity [1] | Damage (%) [2] [%] | protection against acetic acid-induced colonic damage (in words) ([2]; intracolonic, image analysis and MPO assay)
O=C(O)[C@H]1CSC(c2ccc(O)cc2O)=N1 [4′-(HO)-DADMDFT, 4′-hydroxydesazadesmethyldesferrithiocin] | 56466 ± 52617 mAU min^−1g of colonic tissue^−1 | 57 ± 15 | ineffective
CC(=O)N(O)CCCCCNC(=O)CCC(=O)N(O)CCCCCNC(=O)CCC(=O)N(O)CCCCCN [DFO, Desferrioxamine B, reference compound] | 20049 ± 17314 mAU min^−1g of colonic tissue^−1 | 39 ± 15 | 

Reference: US20050234113A1, “Antioxidant and radical scavenging activity of synthetic analogs of desferrithiocin” (University of Florida Research Foundation, Inc., priority 2002, published 2005)
